# Assay results reported in article PMC11189555, “Aryl amino acetamides prevent Plasmodium falciparum ring development via targeting the lipid-transfer protein PfSTART1” (Nature Communications, 2024).
# Read-outs that look alike come from different tables or passages of the source.
# Test system: PopE F8 M-833 resistant clone (PfSTART1 N330K)
# Assay: Growth inhibition assay (72 h, LDH activity)
# Type: cell-based, Plasmodium falciparum
# Protocol: The drug was then removed, and parasites were allowed to recover. Another cycle of drug treatment (3 μM M-833) was then resumed. The resistant lines were cloned out by limiting dilution (diluting the culture into a 96-well plate to achieve an average of ~0.3 parasites per well), prior to growth inhibition assays and genomic DNA (gDNA) extraction (DNeasy Blood and Tissue kit (Qiagen)[18].
# Parasite growth assays with inhibitory compounds were performed as per[11] and are fully described in the Supplementary Information.
# Molecular biology and transfection of P. falciparum: CRISPR method.
# The full 5’ homology region of pfstart1 (either WT, N309K or N330K) was amplified from pPfSTART1-HA-2A-Neo-glmS with the same 5’ BglII primer and a new 3’ primer that replaced with PstI with SpeI and introduced a stop codon. The PCR product was then digested with BglII and SpeI and inserted into similarly digested p1.2 parasite vector2. The p1.2 vector had previously been inserted with a homology region amplified from the 3’ end of the pfstart1 gene (3’HB) to form a second homology block for double recombination. The primers used to amplify 3’HB are listed primers listed in […]
# 60 μg of p1.2-PfSTART1(WT/N309K/N330K) plasmid was linearised with KasI, precipitated in 3 M sodium acetate and ethanol (70% final concentration) overnight at -20°C. The DNA pellet was washed in cold 70% ethanol and resuspended in cytomix 3.
# 50 μ M of crRNA ( Table S 2) and 50 μM of tracRNA (Integrated DNA Technologies) were allowed to form a duplex (5 min at 95°C), and Cas9 enzyme (Integrated DNA Technologies) was added, and incubated for 20 min at room temperature 4. This crRNA -tracRNA -Cas9 mix was added to each DNA preparation and transfected to 3D7 ring parasites using the Bio -Rad Gene Pulser at 310 V and 950 μF.
# Parasites containing the transfected DNA were selected using 2.5 nM WR99210 (Jacobus). Parasites lines were cloned using limiting dilution. Correct integration was tested by PCR (using primer START_5’UTR.F and START_Int.R1 , Table S 2), and sequencing was done using the primers START_3F and START_Int.R2 (Table S 2).
# Growth inhibition assays. Synchronised ring-stage parasites (0.3-0.6% parasitemia, 2% haematocrit) were grown for 72 h in a serial-dilution of the compound under […]
# and compound 4. Note that M-833 was first purchased from MolPort (MolPort -002-267-916) then made in-house at WEHI: the differences observed in EC50s across experiments are attributed to the different batches of M -833. For some experiments, 0, 0.25 or 2.5 mM of glucosamine (GlcN) was also added. Experiments were set up in technical duplicates or triplicates. Following a freeze -thaw cycle, lactate dehydrogenase (LDH) activity was assessed as an indicator of parasite growt h 5. 30 μL of parasite culture was incubated for 30 min in the dark with 75 μL Malstat mixture (0.1 M Tris pH 9.0, 20 g/L lactic acid, pH 7.5, 0.2% Triton-X100, 0.5 g/L acetylpyridine adenine dinucleotide (APAD, Sigma), 200 μg/mL nitroblue tetrazolium (NBT; Sigma), 1 μg/mL phenozine ethosulfate (PES; Sigma)). Absorbance was then measured at 650 nm, transformed using the formula below, plotted against the logarithm of the concentrations, and a non-linear regression (log(inhibitor) vs. response, variable slope) was calculated using GraphPad Prism to assess the half-inhibitory […]
# Growth inhibition % = (1 − average(sample)− average(uRBC)) ∗ 100 […]
# The DMSO samples were also used to assess growth of parasite in the presence of 0.25 and 2.5 mM GlcN (normalised by DMSO in 0 mM GlcN).
# Egress, invasion & recovery assay. To measure egress, invasion and follow up recovery in the presence of different compounds, we adapted the method developed in6, using Hyp1-Nluc parasites7. These parasites episomally express the exported PEXEL protein Hyp1 (PF3D7_0113300) tagged with a NanoLuc luciferase (NLuc) and were selected with 2.5 nM WR99210 (Jacobus). Highly synchronised schizonts were […]
smiles,measurement,setting,value
Cc1cc(Cl)c(S(=O)(=O)N2CCCC2)cc1OCC(=O)NC1CCCCC1 [M-833],Normalised to DMSO,"M-833 0.0390625 uM, Pop E-F8 replicate 1",109.671
same,Normalised to DMSO,"M-833 0.0390625 uM, PopE-F8 replicate 3",109.081
same,Normalised to DMSO,"M-833 0.078125 uM, Pop E-F8 replicate 1",111.583
same,Normalised to DMSO,"M-833 0.078125 uM, PopE-F8 replicate 3",106.576
same,Normalised to DMSO,"M-833 0.15625 uM, Pop E-F8 replicate 1",105.619
same,Normalised to DMSO,"M-833 0.15625 uM, PopE-F8 replicate 3",106.576
same,Normalised to DMSO,"M-833 0.3125 uM, Pop E-F8 replicate 1",109.939
same,Normalised to DMSO,"M-833 0.3125 uM, PopE-F8 replicate 3",106.263
same,Normalised to DMSO,"M-833 0.625 uM, Pop E-F8 replicate 1",106.384
same,Normalised to DMSO,"M-833 0.625 uM, PopE-F8 replicate 3",108.612
same,Normalised to DMSO,"M-833 1.25 uM, Pop E-F8 replicate 1",102.255
same,Normalised to DMSO,"M-833 1.25 uM, PopE-F8 replicate 3",105.48
same,Normalised to DMSO,"M-833 2.5 uM, Pop E-F8 replicate 1",99.4266
same,Normalised to DMSO,"M-833 2.5 uM, PopE-F8 replicate 3",94.0501
same,Normalised to DMSO,"M-833 5 uM, Pop E-F8 replicate 1",83.5245
same,Normalised to DMSO,"M-833 5 uM, PopE-F8 replicate 3",74.6347
same,Normalised to DMSO,"M-833 10 uM, Pop E-F8 replicate 1",58.7156
same,Normalised to DMSO,"M-833 10 uM, PopE-F8 replicate 3",75.7307
same,inhibition at 0.0390625 µM,"Plasmodium falciparum, M-833 0.0390625 uM, Pop E-F8 replicate 1, read-out: % Inhibition",-9.67%
same,inhibition at 0.0390625 µM,"Plasmodium falciparum, M-833 0.0390625 uM, PopE-F8 replicate 3, read-out: % Inhibition",-9.08%
same,inhibition at 0.078125 µM,"Plasmodium falciparum, M-833 0.078125 uM, Pop E-F8 replicate 1, read-out: % Inhibition",-11.6%
same,inhibition at 0.078125 µM,"Plasmodium falciparum, M-833 0.078125 uM, PopE-F8 replicate 3, read-out: % Inhibition",-6.58%
same,inhibition at 0.15625 µM,"Plasmodium falciparum, M-833 0.15625 uM, Pop E-F8 replicate 1, read-out: % Inhibition",-5.62%
same,inhibition at 0.15625 µM,"Plasmodium falciparum, M-833 0.15625 uM, PopE-F8 replicate 3, read-out: % Inhibition",-6.58%
same,inhibition at 0.3125 µM,"Plasmodium falciparum, M-833 0.3125 uM, Pop E-F8 replicate 1, read-out: % Inhibition",-9.94%
same,inhibition at 0.3125 µM,"Plasmodium falciparum, M-833 0.3125 uM, PopE-F8 replicate 3, read-out: % Inhibition",-6.26%
same,inhibition at 0.625 µM,"Plasmodium falciparum, M-833 0.625 uM, Pop E-F8 replicate 1, read-out: % Inhibition",-6.38%
same,inhibition at 0.625 µM,"Plasmodium falciparum, M-833 0.625 uM, PopE-F8 replicate 3, read-out: % Inhibition",-8.61%
same,inhibition at 1.25 µM,"Plasmodium falciparum, M-833 1.25 uM, Pop E-F8 replicate 1, read-out: % Inhibition",-2.26%
same,inhibition at 1.25 µM,"Plasmodium falciparum, M-833 1.25 uM, PopE-F8 replicate 3, read-out: % Inhibition",-5.48%
same,inhibition at 2.5 µM,"Plasmodium falciparum, M-833 2.5 uM, Pop E-F8 replicate 1, read-out: % Inhibition",0.573%
same,inhibition at 2.5 µM,"Plasmodium falciparum, M-833 2.5 uM, PopE-F8 replicate 3, read-out: % Inhibition",5.95%
same,inhibition at 5 µM,"Plasmodium falciparum, M-833 5 uM, Pop E-F8 replicate 1, read-out: % Inhibition",16.5%
same,inhibition at 5 µM,"Plasmodium falciparum, M-833 5 uM, PopE-F8 replicate 3, read-out: % Inhibition",25.4%
same,inhibition at 10 µM,"Plasmodium falciparum, M-833 10 uM, Pop E-F8 replicate 1, read-out: % Inhibition",41.3%
same,inhibition at 10 µM,"Plasmodium falciparum, M-833 10 uM, PopE-F8 replicate 3, read-out: % Inhibition",24.3%
same,inhibition at 0.0390625 µM,"Plasmodium falciparum, Pop E-F8 replicate 1, M-833 0.0390625 uM",-1.3%
same,inhibition at 0.078125 µM,"Plasmodium falciparum, Pop E-F8 replicate 1, M-833 0.078125 uM",-1.67%
same,inhibition at 0.15625 µM,"Plasmodium falciparum, Pop E-F8 replicate 1, M-833 0.15625 uM",1.93%
same,inhibition at 0.3125 µM,"Plasmodium falciparum, Pop E-F8 replicate 1, M-833 0.3125 uM",3.08%
same,inhibition at 0.625 µM,"Plasmodium falciparum, Pop E-F8 replicate 1, M-833 0.625 uM",3.36%
same,inhibition at 1.25 µM,"Plasmodium falciparum, Pop E-F8 replicate 1, M-833 1.25 uM",4.32%
same,inhibition at 2.5 µM,"Plasmodium falciparum, Pop E-F8 replicate 1, M-833 2.5 uM",11.8%
same,inhibition at 5 µM,"Plasmodium falciparum, Pop E-F8 replicate 1, M-833 5 uM",18.8%
same,inhibition at 10 µM,"Plasmodium falciparum, Pop E-F8 replicate 1, M-833 10 uM",41%
same,EC50,"Plasmodium falciparum, read-out: EC50 (95% confidence interval)",> 10 µM
same,Normalised to DMSO,"Pop E-F8 replicate 1, M-833 0.0390625 uM",101.305
same,Normalised to DMSO,"Pop E-F8 replicate 1, M-833 0.078125 uM",101.672
same,Normalised to DMSO,"Pop E-F8 replicate 1, M-833 0.15625 uM",98.0669
same,Normalised to DMSO,"Pop E-F8 replicate 1, M-833 0.3125 uM",96.9165
same,Normalised to DMSO,"Pop E-F8 replicate 1, M-833 0.625 uM",96.6437
same,Normalised to DMSO,"Pop E-F8 replicate 1, M-833 1.25 uM",95.6831
same,Normalised to DMSO,"Pop E-F8 replicate 1, M-833 2.5 uM",88.1997
same,Normalised to DMSO,"Pop E-F8 replicate 1, M-833 5 uM",81.2026
same,Normalised to DMSO,"Pop E-F8 replicate 1, M-833 10 uM",58.9777
